This is an account of results in PMC7827406, “Structure–Activity Relationship (SAR) Study of Spautin-1 to Entail the Discovery of Novel NEK4 Inhibitors” (International Journal of Molecular Sciences, 2021).

Common to all, as to test: biochemical
What all share (parameters): Eurofins KinaseProfiler full panel at Km ATP, residual kinase activity (%) relative to DMSO

The target in one test is T1, BrSK2(h) (Homo sapiens, UniProt Q8IWQ3).
T1 sequence (Q8IWQ3 1-736): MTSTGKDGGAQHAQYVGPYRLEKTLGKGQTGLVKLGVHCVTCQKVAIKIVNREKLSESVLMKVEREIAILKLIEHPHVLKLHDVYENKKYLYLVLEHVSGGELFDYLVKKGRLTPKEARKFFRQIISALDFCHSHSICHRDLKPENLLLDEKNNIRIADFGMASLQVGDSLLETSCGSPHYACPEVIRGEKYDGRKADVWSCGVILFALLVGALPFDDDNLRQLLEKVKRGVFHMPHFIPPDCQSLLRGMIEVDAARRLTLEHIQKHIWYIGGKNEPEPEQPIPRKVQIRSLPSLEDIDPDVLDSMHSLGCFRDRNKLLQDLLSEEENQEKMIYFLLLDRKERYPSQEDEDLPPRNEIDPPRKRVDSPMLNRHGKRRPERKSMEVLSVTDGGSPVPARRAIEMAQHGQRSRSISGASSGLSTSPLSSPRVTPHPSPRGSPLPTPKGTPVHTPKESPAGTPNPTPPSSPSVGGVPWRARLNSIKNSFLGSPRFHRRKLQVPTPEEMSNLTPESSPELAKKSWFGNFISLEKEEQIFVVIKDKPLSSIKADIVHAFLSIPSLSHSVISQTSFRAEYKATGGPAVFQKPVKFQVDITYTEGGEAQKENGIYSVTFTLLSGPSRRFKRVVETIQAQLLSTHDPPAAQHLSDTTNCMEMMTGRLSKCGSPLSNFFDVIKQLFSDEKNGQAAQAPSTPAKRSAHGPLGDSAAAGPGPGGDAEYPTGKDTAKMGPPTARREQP
The procedure, abridged: (§1)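 Radiometric kinase activity assays were run with ATP at Km and compounds at 10 µM, and remaining activity (%) was reported. A separate competitive binding screen measured DNA-tagged kinase displaced from immobilized active-site ligands by qPCR, giving percent kinase still bound at 10 µM compound in DMSO.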

The target of a further test is T2, CRIK(h) (Homo sapiens, UniProt O14578).
T2 construct: gene CIT
T2 sequence (O14578 whole entry): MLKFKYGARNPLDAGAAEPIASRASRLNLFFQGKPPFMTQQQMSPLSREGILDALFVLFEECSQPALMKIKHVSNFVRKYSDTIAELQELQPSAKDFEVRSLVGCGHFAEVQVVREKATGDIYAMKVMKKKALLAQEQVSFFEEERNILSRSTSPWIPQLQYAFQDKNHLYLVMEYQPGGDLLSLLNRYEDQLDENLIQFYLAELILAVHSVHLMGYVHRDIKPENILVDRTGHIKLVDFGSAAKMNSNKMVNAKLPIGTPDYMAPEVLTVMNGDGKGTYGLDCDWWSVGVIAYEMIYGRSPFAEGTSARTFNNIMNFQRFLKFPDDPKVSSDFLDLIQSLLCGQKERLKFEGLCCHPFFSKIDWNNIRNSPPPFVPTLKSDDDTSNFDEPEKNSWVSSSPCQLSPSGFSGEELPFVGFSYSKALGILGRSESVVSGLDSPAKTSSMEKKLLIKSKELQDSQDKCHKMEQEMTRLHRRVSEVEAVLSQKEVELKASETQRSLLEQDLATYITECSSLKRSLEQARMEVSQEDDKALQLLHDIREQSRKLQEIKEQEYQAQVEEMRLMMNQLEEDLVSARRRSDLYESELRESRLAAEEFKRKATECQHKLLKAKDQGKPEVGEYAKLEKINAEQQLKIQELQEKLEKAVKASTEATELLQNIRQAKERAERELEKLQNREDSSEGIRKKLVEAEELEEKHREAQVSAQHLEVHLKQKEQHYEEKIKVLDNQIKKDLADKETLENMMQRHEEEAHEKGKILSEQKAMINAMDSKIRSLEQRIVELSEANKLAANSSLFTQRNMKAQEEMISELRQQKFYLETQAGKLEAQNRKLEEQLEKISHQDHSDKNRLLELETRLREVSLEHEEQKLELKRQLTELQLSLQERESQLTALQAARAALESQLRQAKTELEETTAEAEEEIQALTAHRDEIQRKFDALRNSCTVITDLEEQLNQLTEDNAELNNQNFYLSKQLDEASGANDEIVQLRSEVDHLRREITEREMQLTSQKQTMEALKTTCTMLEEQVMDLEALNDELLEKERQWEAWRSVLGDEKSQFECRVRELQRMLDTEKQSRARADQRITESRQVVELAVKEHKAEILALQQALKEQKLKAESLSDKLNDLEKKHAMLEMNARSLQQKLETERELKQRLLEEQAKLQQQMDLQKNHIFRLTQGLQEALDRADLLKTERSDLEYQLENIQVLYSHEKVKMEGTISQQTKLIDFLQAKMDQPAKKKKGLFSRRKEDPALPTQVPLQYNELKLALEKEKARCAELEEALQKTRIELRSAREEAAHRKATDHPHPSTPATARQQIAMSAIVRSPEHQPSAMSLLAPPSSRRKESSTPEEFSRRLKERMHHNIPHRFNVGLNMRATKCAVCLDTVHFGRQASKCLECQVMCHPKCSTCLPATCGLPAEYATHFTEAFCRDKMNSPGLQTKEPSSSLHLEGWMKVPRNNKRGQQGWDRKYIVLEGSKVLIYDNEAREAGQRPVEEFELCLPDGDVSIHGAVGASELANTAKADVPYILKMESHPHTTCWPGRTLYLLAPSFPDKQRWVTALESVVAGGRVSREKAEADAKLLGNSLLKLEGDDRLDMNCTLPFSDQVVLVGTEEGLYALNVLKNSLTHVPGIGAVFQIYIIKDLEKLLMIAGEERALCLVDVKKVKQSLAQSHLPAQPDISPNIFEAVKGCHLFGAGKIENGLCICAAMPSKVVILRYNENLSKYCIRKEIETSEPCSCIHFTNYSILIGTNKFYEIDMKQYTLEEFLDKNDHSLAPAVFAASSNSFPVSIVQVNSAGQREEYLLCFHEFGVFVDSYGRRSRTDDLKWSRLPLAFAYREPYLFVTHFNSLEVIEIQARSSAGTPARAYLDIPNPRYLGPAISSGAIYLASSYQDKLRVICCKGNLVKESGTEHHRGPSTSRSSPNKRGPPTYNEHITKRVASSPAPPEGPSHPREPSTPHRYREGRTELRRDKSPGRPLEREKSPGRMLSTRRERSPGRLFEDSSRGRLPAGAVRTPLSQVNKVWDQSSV
The procedure, abridged:
as §1

For a further test, the target named is T3, IKKα(h) (Homo sapiens, UniProt O15111).
T3 construct: gene CHUK
T3 sequence (O15111 1-745): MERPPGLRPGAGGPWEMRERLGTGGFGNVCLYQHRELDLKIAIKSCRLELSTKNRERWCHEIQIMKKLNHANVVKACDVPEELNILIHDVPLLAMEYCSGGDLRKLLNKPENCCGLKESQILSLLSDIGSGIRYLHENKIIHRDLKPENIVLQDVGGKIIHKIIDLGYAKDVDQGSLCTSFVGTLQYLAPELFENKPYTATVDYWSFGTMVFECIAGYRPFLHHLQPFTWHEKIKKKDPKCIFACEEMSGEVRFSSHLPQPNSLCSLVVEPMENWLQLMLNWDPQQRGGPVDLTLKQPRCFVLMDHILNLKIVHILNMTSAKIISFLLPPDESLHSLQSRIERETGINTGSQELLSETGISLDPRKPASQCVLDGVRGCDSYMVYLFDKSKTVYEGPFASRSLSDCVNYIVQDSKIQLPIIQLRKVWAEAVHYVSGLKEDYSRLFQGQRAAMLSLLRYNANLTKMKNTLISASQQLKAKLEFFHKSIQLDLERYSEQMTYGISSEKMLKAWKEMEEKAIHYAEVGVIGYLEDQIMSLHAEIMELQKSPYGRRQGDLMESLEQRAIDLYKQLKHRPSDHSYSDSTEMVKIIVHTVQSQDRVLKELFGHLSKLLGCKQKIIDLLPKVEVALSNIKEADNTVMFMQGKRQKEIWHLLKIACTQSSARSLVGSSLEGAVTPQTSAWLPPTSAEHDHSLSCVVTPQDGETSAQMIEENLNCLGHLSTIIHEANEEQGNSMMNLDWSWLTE
In a few lines:
as §1

In the next test the target is T4, MSK1(h) (Homo sapiens, UniProt O75582).
T4 construct: gene RPS6KA5
T4 sequence (O75582 whole entry): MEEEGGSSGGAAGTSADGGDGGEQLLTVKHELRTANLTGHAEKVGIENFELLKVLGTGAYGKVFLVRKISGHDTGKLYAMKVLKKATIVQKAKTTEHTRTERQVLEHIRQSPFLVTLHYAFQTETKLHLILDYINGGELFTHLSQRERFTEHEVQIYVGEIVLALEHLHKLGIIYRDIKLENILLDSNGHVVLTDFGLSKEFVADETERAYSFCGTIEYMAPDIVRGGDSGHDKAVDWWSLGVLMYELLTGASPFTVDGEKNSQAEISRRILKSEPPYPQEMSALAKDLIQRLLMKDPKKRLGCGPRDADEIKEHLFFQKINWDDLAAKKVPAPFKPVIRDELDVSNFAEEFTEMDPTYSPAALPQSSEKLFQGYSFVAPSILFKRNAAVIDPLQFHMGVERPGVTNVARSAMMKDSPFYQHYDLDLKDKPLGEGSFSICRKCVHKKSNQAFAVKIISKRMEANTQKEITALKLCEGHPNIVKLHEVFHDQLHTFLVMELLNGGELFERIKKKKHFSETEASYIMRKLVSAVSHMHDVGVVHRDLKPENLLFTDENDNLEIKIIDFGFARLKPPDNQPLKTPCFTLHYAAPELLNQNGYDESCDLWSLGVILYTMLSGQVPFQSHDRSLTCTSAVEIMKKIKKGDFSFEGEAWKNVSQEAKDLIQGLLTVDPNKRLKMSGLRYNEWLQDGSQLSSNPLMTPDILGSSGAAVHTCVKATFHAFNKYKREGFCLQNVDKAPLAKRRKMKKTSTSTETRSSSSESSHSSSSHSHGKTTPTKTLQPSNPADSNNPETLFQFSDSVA
The procedure, abridged:
as §1

Another test has as its target T5, CaMKIIβ(h) (Homo sapiens, UniProt Q13554).
T5 construct: gene CAMK2B
The procedure, abridged: as §1

Setting [1] is: read-out: Residual activity (%) Spautin-1 5aa.
The mark [2] stands for this setting: read-out: Residual activity (%) 5as.
[3] abbreviates: read-out: Residual activity (%) 5at.
The mark [4] stands for this setting: read-out: Residual activity (%) 5ay.

Molecules are shown by their SMILES. Where two headings read alike, the source gives them in different places.

T5 sequence (Q13554 whole entry): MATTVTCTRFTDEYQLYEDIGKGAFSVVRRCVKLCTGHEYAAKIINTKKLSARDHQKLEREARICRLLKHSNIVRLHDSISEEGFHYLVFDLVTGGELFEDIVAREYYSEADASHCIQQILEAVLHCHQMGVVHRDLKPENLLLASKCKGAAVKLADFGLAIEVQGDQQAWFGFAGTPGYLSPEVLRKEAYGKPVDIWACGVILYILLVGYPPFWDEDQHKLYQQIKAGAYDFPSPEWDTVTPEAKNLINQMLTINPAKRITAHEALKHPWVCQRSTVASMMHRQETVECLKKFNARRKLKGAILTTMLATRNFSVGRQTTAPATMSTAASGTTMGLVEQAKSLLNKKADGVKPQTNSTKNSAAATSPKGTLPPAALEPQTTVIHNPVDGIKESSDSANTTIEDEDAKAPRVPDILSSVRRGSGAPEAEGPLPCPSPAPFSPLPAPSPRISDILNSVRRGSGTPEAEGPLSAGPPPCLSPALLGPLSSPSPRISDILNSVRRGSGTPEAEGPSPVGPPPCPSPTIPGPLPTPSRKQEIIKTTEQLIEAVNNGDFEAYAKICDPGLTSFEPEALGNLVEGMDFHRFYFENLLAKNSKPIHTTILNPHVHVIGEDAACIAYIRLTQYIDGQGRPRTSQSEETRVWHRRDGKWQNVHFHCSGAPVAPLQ

In the case of `Fc1ccc(CNc2ncnc3ccc(F)cc23)cc1` [5aa, 6-Fluoro-N-(4-fluorobenzyl)-4-Quinazolinamine], the remaining activity at 10 µM turned out to be 79% at BrSK2(h) (setting [1]); 90% at CRIK(h) (setting [1]); 72% on IKKα(h) (setting [1]); 90% on MSK1(h) (setting [1]); 81% on CaMKIIβ(h) (setting [1]).

Take `Fc1ccc(CCNc2ncnc3ccc(F)cc23)cc1` [5as, 6-Fluoro-N-[2-(4-Fluorophenyl)Ethyl]-4-Quinazolinamine]: the remaining activity at 10 µM on BrSK2(h) (setting [2]) is 65%; on CRIK(h) (setting [2]) it was 101%; on IKKα(h) (setting [2]) it was 100%; at MSK1(h) (setting [2]), 70%; at CaMKIIβ(h) (setting [2]) it was 91%.

In the case of `Fc1ccc2ncnc(NCCc3ccc(Cl)cc3)c2c1` [5at, N-[2-(4-Chlorophenyl)Ethyl]-6-Fluoro-4-Quinazolinamine], the remaining activity at 10 µM at BrSK2(h) (setting [3]) was found to be 71%; at CRIK(h) (setting [3]) it was 89%; at IKKα(h) (setting [3]), 91%; at MSK1(h) (setting [3]) it was 79%; on CaMKIIβ(h) (setting [3]), 91%.

On to `COc1ccc2ncnc(Nc3cccc(F)c3)c2c1` [5ay, N-(3-Fluorophenyl)-6-Methoxy-4-Quinazolinamine], for which the remaining activity at 10 µM at BrSK2(h) (setting [4]) stood at 42%; on CRIK(h) (setting [4]), 76%; at IKKα(h) (setting [4]), 86%; on MSK1(h) (setting [4]), 74%; at CaMKIIβ(h) (setting [4]) it was 72%.
